{"source": "paper doi:10.1101/2025.10.26.684696v1", "about": "(bioRxiv, 2025)", "key": {"[1]": {"assay": "Stability in rat liver microsomes", "type": "in vitro ADME"}, "[2]": {"assay": "LogD7.4 by miniaturized shake-flask procedure", "type": "physicochemical", "conditions": "miniaturized shake-flask procedure at pH 7.4"}, "[3]": {"assay": "Stability in simulated gastric fluid", "type": "in vitro ADME", "conditions": "pH 1.6"}, "[4]": {"assay": "Stability in human plasma", "type": "in vitro ADME"}, "Caco-2 cell permeability": {"assay": "Caco-2 cell permeability", "type": "in vitro ADME"}, "[5]": {"assay": "Stability in simulated intestinal fluid", "type": "in vitro ADME", "conditions": "pH 6.5"}, "[6]": {"conditions": "reference compound; cited from earlier work"}, "[7]": {"conditions": "reference compound; cited from earlier work", "remark": "listed apart in the source"}}, "note": "Residues, ends and D or L forms follow the SMILES beside them.", "data": [{"smiles": "N=C(N)NCCC[C@@H]1NC(=O)CNC(=O)CNC(=O)[C@H](Cc2c[nH]cn2)NC(=O)CNC(=O)CNC(=O)[C@H](Cc2c[nH]c3ccccc23)NC(=O)[C@H](Cc2c[nH]c3ccccc23)NC(=O)CNC(=O)[C@H](CCCCN)NC(=O)CNC(=O)[C@H](CO)NC(=O)CNC(=O)CNC(=O)[C@H](Cc2c[nH]c3ccccc23)NC1=O", "note": "[SP4] (cyclo(GGHGGRWGGSGKGWW))", "values": [{"measurement": "half-life", "setting": "[1]", "value": 4.7, "unit": "h"}, {"measurement": "LogD7.4", "setting": "[2]", "value": 0.86}, {"measurement": "half-life", "setting": "[3]", "value": 1.8, "unit": "h"}, {"measurement": "remaining at 1 h", "setting": "[4]", "value": 89.4, "unit": "%"}, {"measurement": "Papp A→B", "setting": "Caco-2 cell permeability", "value": 1.78, "unit": "×10⁻⁶ cm/s"}, {"measurement": "Papp B→A", "setting": "Caco-2 cell permeability", "value": 2.15, "unit": "×10⁻⁶ cm/s"}, {"measurement": "efflux ratio", "setting": "Caco-2 cell permeability", "value": "~1.2"}, {"measurement": "half-life", "setting": "[5]", "value": 7.6, "unit": "h"}]}, {"smiles": "CC(C)[N+](C)(CCOC(=O)C1c2ccccc2Oc2ccccc21)C(C)C", "note": "[propantheline]", "values": [{"measurement": "Human plasma stability (t1/2)", "setting": "[6]", "value": 2.6, "unit": "min"}]}, {"smiles": "CC[C@H]1OC(=O)[C@H](C)[C@@H](O[C@H]2C[C@@](C)(OC)[C@@H](O)[C@H](C)O2)[C@H](C)[C@@H](O[C@@H]2O[C@H](C)C[C@H](N(C)C)[C@H]2O)[C@](C)(O)C[C@@H](C)C(=O)[C@H](C)[C@@H](O)[C@]1(C)O", "note": "[erythromycin]", "values": [{"measurement": "Stability in intestinal simulated fluids (t1/2)", "setting": "[7]", "value": 7.55, "unit": "h"}]}]}
